# Literature values in patent US20050169997A1, “Method for preparing resinates” (priority 2002, published 2005).
smiles,measurement,value
COc1ccc2c(c1)c(CC(=O)O)c(C)n2C(=O)c1ccc(Cl)cc1 [indomethacin],solubility of indomethacin in water,14 ppm
